Test results: US20160120915A1, “METHODS FOR MANIPULATING IMMUNE RESPONSES BY ALTERING MICROBIOTA” (NEW YORK UNIVERSITY, priority 2013, published 2016)
Entries after “also recorded” stand apart in the source; their conditions may differ. Counter-ions that a name gives are not always drawn.

Key:
NOD mice = experiment: NOD PAT/STAT: type 1 diabetes incidence; type: in vivo, NOD/ShiLTj mice
Excerpt: Pregnant NOD/ShiLTj mice were randomized into 3 groups: Control, STAT, and PAT. Control mice were maintained on non-acidified sterilized water. STAT pregnant dams were given low dose penicillin beginning late in pregnancy until pups were 12 weeks of age. PAT mice were given 3 therapeutic doses of tylosin starting on day 10 of life. At 6 weeks of age, 13 male (5 control, 3 STAT, 5 PAT) and 15 female (5 per group) NOD mice were sacrificed for immune-phenotyping by flow cytometry and ileal gene expression analysis by microarray and qPCR. From 10 weeks of age to 31 weeks of age, mice were tested for diabetes weekly by blood glucose measurement and urinary glucose detection. Onset of diabetes was defined as two consecutive weeks of blood glucose >250 mg/dl and glucosuria.
For the NOD experiments, dams (and their litters) were divided into control, STAT, and PAT groups (FIG. 33). The control mice were given non-acidified sterilized water throughout the experiments, and for the 2 antibiotic groups (STAT and PAT), the antibiotics were dissolved in non-acidified sterilized water. For STAT, subtherapeutic penicillin VK (1 mg/kg/day) was added to the drinking water in late pregnancy (so that the pups pass through an altered vaginal microbiota), and then continued until day 84 of life. […] Mice were monitored for diabetes onset by glucosuria and blood glucose, starting at 10 weeks of age. […]

pancreatic islets = experiment: NOD: pancreatic insulitis scoring in 6-week old mice; type: in vivo; conditions: p<0.05
Method: Pancreata from 6-week-old control, STAT and PAT mice were fixed in modified Bouin's fixative (17 ml saturated aqueous picric acid, 1 ml glacial acetic acid, 2 ml 38-40% formalin) and paraffin embedded, cut, and stained with Aldehyde Fuchsin for insulitis scoring (Leiter, Curr Protoc Immunol. 2001; Chapter 15:Unit 15 9). Five sections were made for each pancreas. Each of the sections is 5 microns thick with a 70 microns gap between sections. Insulitis was scored on a scale of 0-4: 0, normal islet; 1, peri-insular leukocyte aggregates; 2, leukocyte infiltration <25%; 3, leukocyte infiltration >25%, but <75%; 4, leukocyte infiltration >75% and β-cell destruction. For each mouse, an insulitis score was calculated based on the following formula: (total score for all islets)/(4×number of islets examined) (Forestier et al., Journal of immunology. 2007; 178, 1415). […] The most severely affected islet was scored from each section. Insulitis was scored on a scale of 0-4: 0, normal islet; 1, peri-insular leukocyte aggregates; 2, leukocyte infiltration <25%; 3, leukocyte infiltration >25%, but <75%; 4, leukocyte infiltration >75% and β-cell destruction, according to standard criteria. For the females, we scored at least 24 islets per group (5 mice per group). […] For the males, 25 islets were scored for the control and PAT group (5 mice per group), and 15 islets from the STAT group (3 mice). […]

[1] = tested on: small intestinal lamina propria T-helper cells; experiment: NOD: flow cytometry of Treg and Th17 cells in spleen and SI-LP; type: in vivo, NOD mice; conditions: for percent of SI-LP Th17 (CD4+RORγT+) cells / percent of SI-LP Treg (CD4+ FOXP3+) cells: 6-week old male NOD mice, vs controls
Method: After euthanasia of the mice by CO2 asphyxiation followed by cervical dislocation, the small intestines were dissected and immediately placed in cold calcium and magnesium-free DPBS, followed by removal of the mesenteric fat and Peyer's patches. The intestines were opened longitudinally and contents were removed by washing thoroughly with cold DPBS. The intestines were then cut into 2 cm pieces and treated with 10 ml 1 mM DTT/PBS, shaken at RT for 10 minutes to remove contaminating intraepithelial lymphocytes. Subsequently, the intestinal tissue was treated two times with 30 mM EDTA and 10 mM HEPES in PBS to remove epithelial cells. To isolate lamina propria lymphocytes, intestinal tissue was digested for 1.5 hours at 37° C. in digestion mix (0.5 mg/ml Collagenase/Dispase (Roche), 150 μg /ml DNase 1 (Sigma) in complete RPMI. Cells were passed through a 100 μm diameter nylon mesh filter (BD Bioscience). For further purification of leukocytes, intestinal cell suspensions were resuspended in 40% Percoll, under-layered with 80% Percoll (GE Healthcare Life Sciences) and centrifuged at 2,200 rpm for 25 minutes at room temperature. The leukocytes were collected at the interphase of the 40% 80% discontinuous Percoll gradient, then washed and re-suspended in DPBS for staining.
Cells were incubated with blue Live/DEAD fixable dye (Invitrogen) for 10 minutes at 4° C. to identify live cells. Intestinal leukocytes were phenotyped using the following antibodies: CD3-APC-Cy™7 (BD Biosciences), CD4− PE-Alexa Fluor 610 (Invitrogen), CD8− V500 (BD Biosciences), RORγt-PE (eBioscience), Foxp3-PE-Cy7 (eBioscience). Cells were first incubated with surface antibodies (each at 1:50 in FACS buffer) along with FC block (Anti-Mouse CD16/CD32, eBioscience) at 1:200 for 30 minutes at 4° C. Then the cells were fixed and permeabilized with Fix/Perm (eBioscience) and subsequently incubated with the nuclear antibodies in perm/wash buffer for 30 minutes at 4° C. (eBioscience).
All cells were acquired on a LSRII (BD Biosciences) and analyzed using FlowJo software (version 9.3.2; Tree Star Inc.).
Flow cytometry was performed on splenic and SI-LP cells from 6-week old male and female NOD mice. CD3 and CD4 surface stains and a live/dead stain were used to gate on live T-helper cells. Nuclear staining for FOXP3 and RORγT was performed to identify Treg and Th17 cells, respectively. By qPCR, SFB was below detectable limits in fecal specimens collected at 3 weeks and 6 weeks of age from all of the mice used in the above analysis. The range for SFB qPCR assay was from 10^2 to 10^6 copies of SFB. […] PAT decreased the percent of SI-LP Treg and Th17 cells in male, but not female NOD mice. C=controls, S=STAT, P=PAT. Statistical analysis was performed on each tissue separately, using the Kruskal-Wallis test followed by the Dunn's multiple comparison test, ** p≦0.01. […] This work provides evidence that PAT changes T-cell populations in the NOD mice that are developing T1D and insulitis earlier.

For CC1(C)S[C@@H]2[C@H](NC(=O)COc3ccccc3)C(=O)N2[C@H]1C(=O)[O-].[K+] [STAT, penicillin VK], which “type 1 diabetes expression” value (NOD mice; NOD mice, STAT-antibiotic-treated) is on record?
Its value is “no different from controls”.

What about the “islet inflammation (insulitis score 0-4)” value (pancreatic islets; 6-week old NOD females, vs controls) of the same compound?
Its value is “significantly more”.

And the “percent of SI-LP Th17 (CD4+RORγT+) cells” value [1]?
The value was “intermediate”.

And the “percent of SI-LP Treg (CD4+ FOXP3+) cells” value [1]?
Its value is “intermediate”.

For CC[C@H]1OC(=O)C[C@@H](O)[C@H](C)[C@@H](O[C@@H]2O[C@H](C)[C@@H](O[C@H]3C[C@@](C)(O)[C@@H](O)[C@H](C)O3)[C@H](N(C)C)[C@H]2O)[C@@H](CC=O)C[C@@H](C)C(=O)/C=C/C(C)=C/[C@@H]1CO[C@@H]1O[C@H](C)[C@@H](O)[C@@H](OC)[C@H]1OC [Tylosin, Tylosin tartrate], which “development of T1D (diabetes incidence)” value (NOD mice; male NOD mice, onset = 2 consecutive weeks blood glucose >250 mg/dl and glucosuria, vs control, listed as PAT) is on record?
Its value is “accelerated; also recorded: higher rate”.

What about the “insulitis (score 0-4)” value (pancreatic islets; 6-week old NOD males, vs control or STAT males) of the same compound?
The value was “significantly more”.

What about the “decrease of percent of SI-LP Treg and Th17 cells” value ([1]; 6-week old female NOD mice) of the same compound?
Its value is “not”.

What about the “percent of SI-LP Th17 (CD4+RORγT+) cells” value [1] of the same compound?
The value was “decreased”.

And the “percent of SI-LP Treg (CD4+ FOXP3+) cells” value [1]?
The value was “decreased”.
